Experimental findings from patent US9579376B2 (priority 2009, dated 2017) are described below.

For one experiment, the system named is CD8+ T cells. The experiment is described as follows: IFN-γ ELISpot deconvolution and follow-up ICS to identify single peptide epitopes. The experiment is classed as cell-based, human. The settings on record: for # SUBJECTS: number of HSV-2 seropositive subjects (55 sampled) with CD8+ T cell response to the peptide, ELISpot and follow-up ICS; for antigenicity for persons with HLA A*0201, A*0202 or other HLA-A2 subtypes: Example 1, T-cells from infected patients. As for the experimental part: ELISPOT technology was used to further identify individual peptides.
High throughput intracellular cytokine staining-flow cytometry (ICS) was used to detect IFN-γ, IL-2, TNF-α expression in CD8+ T cells following 6 h exposure of PBMC with HSV-2 peptides (or control antigen) in the presence of co-stimulatory antibodies (α-CD28/α-CD49d) and Brefeldin A. Cytokine responses to peptide antigen were scored positive if they differed from the negative control (p<0.02; Fisher's one-sided test); this cutoff was defined during trial and error validation studies with HSV-2 seronegative subjects and allows for a 5% false positive error rate. Peptide pools giving positive responses by ICS in HSV-2 seropositive subjects were deconvoluted using IFN-γ ELISpot to identify the causative peptide. Deconvolution cutoff was determined as at least 11 spots per well and 3-fold higher spots than DMSO (negative) control.

The test system of experiment [1] is HSV-2 specific CD8+ T cells. Particulars: one individual with four HLA-B07 restricted UL49 epitopes; versus other tested epitopes. As for the experimental part:
Identified single peptides were used to individually stimulate CD8+ T cells in subjects with multiple epitopes. These responses were analyzed by ICS to determine the polyfunctional profiles of HSV-2 specific T cells. Single peptides were also used to assess degranulation; the presence of lytic proteins granzyme B and perforin, in HSV-2 specific CD8+ T cells, was determined by flow cytometry. The proliferative capacities of HSV-2 specific T cells were determined by pre-staining peptide exposed PBMC with CFSE. A cell division index (CDI)>2 was used as a cut-off for proliferation positivity.
Single peptides identified during this study were used to activate epitope specific CD8+ T cells. Antigen specific CD8+ T cells were identified using a gating strategy. […] The polyfunctional profiles of responding cells, with reference to the expression of IFN-γ, IL2, and TNF-α, and the mobilization of CD107a were determined.

For experiment [2], the system named is HSV-2 specific CD8+ T cells. The experiment can be described thus: CFSE proliferation of peptide exposed PBMC (cell division index). The experiment is classed as cell-based, human. Particulars: CFSE stained PBMC; CDI>2 cut-off for proliferation positivity. The text has this:
To evaluate the proliferative capacity of HSV-2 specific CD8+ T cells, we utilized CFSE to stain PBMC prior to epitope specific stimulation. […] CD8+ T cells that recognized UL4945-49 did proliferate (CDI=8.7), but CDI values were below threshold for peptides UL4981-96, UL4993-108 and UL49129-143 (respective CDI=1.8, 1.4 and 1.6). Since T cells specific for UL4945-49 are more abundant that those specific for the other epitopes, the ability of these cells to proliferate likely reflects the epitope dominance observed within UL49.

On to CPLLIFDRTRKFVLA, for which the “# SUBJECTS” value with CD8+ T cells is 1.
Consider DFIWTGNPRTAPRSL, for which, in the experiment with CD8+ T cells, the “# SUBJECTS” value is recorded as 2.
The same measure, in the same setting: to “GVLVHLRIRTREASF (herpes simplex virus 2)” belongs 1.
On the same count and under the same terms, to “DRLDNRLQLGMLIPG (herpes simplex virus 2)” belongs 1.
For the substance “KTSNALCVRGARPFS (herpes simplex virus 2)”, the “# SUBJECTS” value in the experiment with CD8+ T cells was 1.
With PMRARPRGEVRFLHY, in the experiment on CD8+ T cells, the “# SUBJECTS” value is recorded as 6. For the same substance, the “response in Elispot and ICS assays” value in the experiment with CD8+ T cells (one individual with four HLA-B07 restricted epitopes within UL49, versus other UL49 epitopes) is reported as “largest detectable response”. In experiment [1], the “CD107a positive cells among responding cells” value is “less CD107a positive cells relative to IFN-γ+ cells”, the “cytokine levels in responding cells” value is listed as “higher levels of IFN-γ” and the “monofunctional cells among responding cells” value was “less monofunctional cells”. For the same substance, the “CDI (cell division index)” value in experiment [2] was found to be 8.7.
Consider “LMLEYFCRCAREESK (herpes simplex virus 2)”, for which the “# SUBJECTS” value in the experiment with CD8+ T cells amounted to 1.
In the case of “HGPGPARAPPPPGGPV (herpes simplex virus 2)”, in the experiment with CD8+ T cells, the “# SUBJECTS” value is recorded as 1. The “CDI (cell division index)” value in experiment [2] is recorded as 1.4.
For the substance GHIGAYVVLVDQTGN, the “# SUBJECTS” value in the experiment on CD8+ T cells stood at 1.
Still for that read-out and setting: to “SMSLADFHGEEFEKL (herpes simplex virus 2)” belongs 1; to “KNLLORANELVNPDA: 15-mer epitope, amino acids 249-263 of HSV-2 UL49”, 1.
The same measure, in the same setting: as for “AQREAAGVYDAVRTW (herpes simplex virus 2)”, the figure is 2; as for LHPFCIPCMKTWIPL, 1.
HNLFLWEDQTLLRAT: in the experiment with CD8+ T cells, the “antigenicity for persons with HLA A*0201, A*0202 or other HLA-A2 subtypes” value was “repeatedly and strongly positive”; the “# SUBJECTS” value amounted to 5.
With “AFEDRSYPAVFYLLQ (herpes simplex virus 2)”, in the experiment on CD8+ T cells, the “# SUBJECTS” value is 1.
Regarding “ARPRRSASVAGSHGPG (herpes simplex virus 2)”, the “# SUBJECTS” value in the experiment with CD8+ T cells is on record as 2. For the same substance, the “CDI (cell division index)” value in experiment [2] is given as 1.8.
For “FGGHYMESVFQMYTR (herpes simplex virus 2)”, the “# SUBJECTS” value in the experiment on CD8+ T cells is recorded as 1.
In the case of “9 mer: 9 amino acid minimal epitope at amino acids 372-380 of HSV-2 UL25 (FLWEDQTLL; herpes simplex virus 2)”, the “antigenicity for persons with HLA A*0201, A*0202 or other HLA-A2 subtypes” value in the experiment on CD8+ T cells is “repeatedly and strongly positive”.
For the substance LPIAGVSSVVALAPY, in the experiment with CD8+ T cells, the “# SUBJECTS” value came to 1.
Still for that read-out and setting: as for EAGLMDAATPPARPPA, the figure is 1.
In the case of RAAAPAWSRRTLLPE, the “# SUBJECTS” value in the experiment on CD8+ T cells was determined as 3.
Still for that read-out and setting: to PVGNMLFDQGTLVGA belongs 1; to DMETGHIGAYVVLVD, 1.
As for “RLGPADRRFVALSGS (herpes simplex virus 2)”, the “# SUBJECTS” value in the experiment with CD8+ T cells worked out at 3.
For the substance “PKASATPATDPARGR (herpes simplex virus 2)”, the “# SUBJECTS” value in the experiment with CD8+ T cells is 1. Besides, in experiment [2], the “CDI (cell division index)” value is given as 1.6.
